From US20250163047A1, “HETEROCYCLIC COMPOUNDS, COMPOSITIONS THEREOF, AND METHODS OF TREATMENT THEREWITH” (BeiGene, Ltd., priority 2022, published 2025)

Key:
Cbl-b (aa36-427) = molecular target: T1, Cbl-b (aa36-427) (Homo sapiens, UniProt Q13191); experiment: Co-expressed Cbl-b with BirA biochemical assay (CBLB/E2-Ub binding, HTRF); details: 0.6 nM Cbl-b co-expressed with BirA, HTRF; read-out: co-express CBLB/E2-Ub-binding assay IC50
T1 construct: Cbl-b (aa36-427, in-house); made in house
Text: (§1) The assay in the absence of a Cbl-b/Cbl inhibitor, where phosphorylation of Cbl-b/Cbl by the Src kinase allows UbcH5B-Ub to bind to Cbl-b/Cbl and brings the Bodipy-Fluorescein tagged ubiquitin in proximity to the streptavidin-terbium bound to the N-terminal biotinylated Avi-tagged Cbl-b/Cbl. […] The lack of a FRET signal indicates Cbl-b/Cbl is inhibited by the Cbl-b/Cbl inhibitor.

Cbl (aa49-434) = molecular target: T2, Cbl (aa49-434) (Homo sapiens, UniProt P22681); experiment: Co-expressed Cbl with BirA biochemical assay (CBL/E2-Ub binding, HTRF); details: 0.6 nM Cbl co-expressed with BirA, read-out: co-express CBL/E2-Ub-binding assay IC50
T2 construct: Cbl (aa49-434, in-house); made in house
T2 sequence (P22681 49-434): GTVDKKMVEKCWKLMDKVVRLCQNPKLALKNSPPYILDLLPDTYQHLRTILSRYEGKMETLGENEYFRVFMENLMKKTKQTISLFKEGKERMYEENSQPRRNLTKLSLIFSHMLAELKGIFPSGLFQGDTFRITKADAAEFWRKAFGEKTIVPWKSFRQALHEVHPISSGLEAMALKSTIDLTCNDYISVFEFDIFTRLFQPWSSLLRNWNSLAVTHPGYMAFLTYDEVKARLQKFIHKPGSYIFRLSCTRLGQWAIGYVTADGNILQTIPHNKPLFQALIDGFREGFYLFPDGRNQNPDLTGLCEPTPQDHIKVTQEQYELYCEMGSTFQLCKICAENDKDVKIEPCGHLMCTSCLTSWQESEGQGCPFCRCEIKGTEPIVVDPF
Text: as §1

T1 sequence (Q13191 36-427): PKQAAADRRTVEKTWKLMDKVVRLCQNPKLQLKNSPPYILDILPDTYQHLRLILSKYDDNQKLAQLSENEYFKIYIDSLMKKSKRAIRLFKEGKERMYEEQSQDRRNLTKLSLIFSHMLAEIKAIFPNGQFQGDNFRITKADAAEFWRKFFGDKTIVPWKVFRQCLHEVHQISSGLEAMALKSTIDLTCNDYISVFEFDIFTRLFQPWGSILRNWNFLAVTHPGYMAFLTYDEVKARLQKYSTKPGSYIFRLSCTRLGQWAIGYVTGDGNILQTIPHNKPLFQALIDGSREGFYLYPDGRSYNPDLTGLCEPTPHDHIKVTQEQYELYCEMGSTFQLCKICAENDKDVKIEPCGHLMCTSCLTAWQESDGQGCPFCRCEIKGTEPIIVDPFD

| Structure (SMILES) | IC50 (Cbl-b (aa36-427)) [nM] | IC50 (Cbl (aa49-434)) [nM] |
| --- | --- | --- |
| Cn1cnnc1[C@]1(c2cccc(NC(=O)c3cc(CNC4(C)CC4)cn4c(F)cnc34)c2)C[C@H](C)C1 [Compound A45, 3-fluoro-N-(3-((1s, 3s)-3-methyl-1-(4-methyl-4H-1,2,4-triazol-3-yl)cyclobutyl)phenyl)-6-(((1-methylcyclopropyl)amino)methyl)imidazo[1,2-a]pyridine-8-carboxamide] | 1.2 | 3.5 |
| Cc1cnc2c(C(=O)Nc3cccc([C@]4(c5nncn5C)C[C@@H](C)C4)c3)cc(CN3CC[C@H](F)[C@H](C)C3)cn12 [Compound A46, 6-(((3R,4S)-4-fluoro-3-methylpiperidin-1-yl)methyl)-3-methyl-N-(3-((1s,3S)-3-methyl-1-(4-methyl-4H-1,2,4-triazol-3-yl)cyclobutyl)phenyl)imidazo[1,2-a]pyridine-8-carboxamide] | 1.6 | 5.9 |
| Cc1cnc2c(C(=O)Nc3cccc([C@]4(c5nncn5C)C[C@@H](CC#N)C4)c3)cc(CN3CC[C@H](F)[C@H](C)C3)cn12 [Compound A47, N-(3-((1s,3S)-3-(cyanomethyl)-1-(4-methyl-4H-1,2,4-triazol-3-yl)cyclobutyl)phenyl)-6-(((3R,4S)-4-fluoro-3-methylpiperidin-1-yl)methyl)-3-methylimidazo[1,2-a]pyridine-8-carboxamide] | 1.4 | 7 |
| C[C@@H]1CN(Cc2cc(C(=O)Nc3cccc([C@]4(Cc5nncn5C)C[C@@H](C#N)C4)c3)c3nccn3c2)CC[C@@H]1F [Compound A48, N-(3-((1r,3R)-3-cyano-1-((4-methyl-4H-1,2,4-triazol-3-yl)methyl)cyclobutyl)phenyl)-6-(((3R,4S)-4-fluoro-3-methylpiperidin-1-yl)methyl)imidazo[1,2-a]pyridine-8-carboxamide] | 0.8 | 2.7 |
| CC[C@H](C)NCc1cc(C(=O)Nc2cncc([C@]3(c4nncn4C)C[C@@H](C)C3)c2)c2nccn2c1 [Compound A49, 6-((((S)-sec-butyl)amino)methyl)-N-(5-((1s,3R)-3-methyl-1-(4-methyl-4H-1,2,4-triazol-3-yl)cyclobutyl)pyridin-3-yl)imidazo[1,2-a]pyridine-8-carboxamide] | 3 | 11.9 |
| C[C@H](NCc1cc(C(=O)Nc2cncc([C@]3(c4nncn4C)C[C@@H](C)C3)c2)c2ncc(F)n2c1)C1CCC1 [Compound A50, 6-({[(1S)-1-cyclobutylethyl]amino}methyl)-3-fluoro-N-{5-[(1r, 3s)-3-methyl-1-(4-methyl-1,2,4-triazol-3-yl)cyclobutyl]pyridin-3-yl}imidazo[1,2-a]pyridine-8-carboxamide] | 0.9 | 1.1 |
| Cn1cnnc1[C@]1(c2cccc(NC(=O)c3cc(CNCC4CCCC4)cn4c(F)cnc34)c2)C[C@H](C)C1 [Compound A51, 6-(((cyclopentylmethyl)amino)methyl)-3-fluoro-N-(3-((1s, 3s)-3-methyl-1-(4-methyl-4H-1,2,4-triazol-3-yl)cyclobutyl)phenyl)imidazo[1,2-a]pyridine-8-carboxamide] | 1.5 | 4.3 |
| Cn1cnnc1[C@]1(c2cccc(NC(=O)c3cc(CNCC4CCC4)cn4c(F)cnc34)c2)C[C@H](C)C1 [Compound A52, 6-(((cyclobutylmethyl)amino)methyl)-3-fluoro-N-(3-((1s, 3s)-3-methyl-1-(4-methyl-4H-1,2,4-triazol-3-yl)cyclobutyl)phenyl)imidazo[1,2-a]pyridine-8-carboxamide] | 0.8 | 3.4 |
| Cc1cnc2c(C(=O)Nc3cccc([C@]4(c5nncn5C)C[C@@H](C)C4)c3)cc(CNCC3CCC3)cn12 [Compound A53, 6-(((cyclobutylmethyl)amino)methyl)-3-methyl-N-(3-((1s, 3s)-3-methyl-1-(4-methyl-4H-1,2,4-triazol-3-yl)cyclobutyl)phenyl)imidazo[1,2-a]pyridine-8-carboxamide] | 2 | 7.7 |
| C[C@@H]1CN(Cc2cc(C(=O)Nc3cncc([C@]4(c5nncn5C)C[C@@H](C)C4)c3)c3nccn3c2)CC[C@@H]1F [Compound A54, 6-(((3R,4S)-4-fluoro-3-methylpiperidin-1-yl)methyl)-N-(5-((1s,3S)-3-methyl-1-(4-methyl-4H-1,2,4-triazol-3-yl)cyclobutyl)pyridin-3-yl)imidazo[1,2-a]pyridine-8-carboxamide] | 1.9 | 6 |
| Cc1cnc2c(C(=O)Nc3cncc([C@]4(c5nncn5C)C[C@@H](C)C4)c3)cc(CN3CC[C@H](F)[C@H](C)C3)cn12 [Compound A55, 6-{[(3R,4S)-4-fluoro-3-methylpiperidin-1-yl]methyl}-3-methyl-N-{5-[(1r, 3s)-3-methyl-1-(4-methyl-1,2,4-triazol-3-yl)cyclobutyl]pyridin-3-yl}imidazo[1,2-a]pyridine-8-carboxamide] | 2.9 | 6.7 |
| Cc1cnc2c(C(=O)Nc3cncc([C@]4(c5nncn5C)C[C@@H](C)C4)c3)cc(CNCC3CCC3)cn12 [Compound A56, 6-{[(cyclobutylmethyl)amino]methyl}-3-methyl-N-{5-[(1r, 3s)-3-methyl-1-(4-methyl-1,2,4-triazol-3-yl)cyclobutyl]pyridin-3-yl}imidazo[1,2-a]pyridine-8-carboxamide] | 1.5 | 4.1 |
| Cn1cnnc1[C@]1(c2cccc(NC(=O)c3cc(CNCC4CCC4)cn4c(Cl)cnc34)c2)C[C@H](C)C1 [Compound A57, 3-chloro-6-(((cyclobutylmethyl)amino)methyl)-N-(3-((1s, 3s)-3-methyl-1-(4-methyl-4H-1,2,4-triazol-3-yl)cyclobutyl)phenyl)imidazo[1,2-a]pyridine-8-carboxamide] | 0.6 | 1.8 |
| C[C@H](NCc1cc(C(=O)Nc2cccc([C@]3(c4nncn4C)C[C@@H](C)C3)c2)c2ncc(Cl)n2c1)C1CC1 [Compound A58, 3-chloro-6-((((S)-1-cyclopropylethyl)amino)methyl)-N-(3-((1s,3R)-3-methyl-1-(4-methyl-4H-1,2,4-triazol-3-yl)cyclobutyl)phenyl)imidazo[1,2-a]pyridine-8-carboxamide] | 0.7 | 2.6 |
| Cc1cnc2c(C(=O)Nc3cccc([C@]4(c5nncn5C)C[C@@H](C)C4)c3)cc(CN[C@@H](C)C3CC3)cn12 [Compound A59, 6-((((S)-1-cyclopropylethyl)amino)methyl)-3-methyl-N-(3-((1s,3R)-3-methyl-1-(4-methyl-4H-1,2,4-triazol-3-yl)cyclobutyl)phenyl)imidazo[1,2-a]pyridine-8-carboxamide] | 1.7 | 5.3 |
| Cc1cnc2c(C(=O)Nc3cccc([C@]4(c5nncn5C)C[C@@H](C)C4)c3)cc(CN[C@@H](C)C3CCC3)cn12 [Compound A60, 6-((((S)-1-cyclobutylethyl)amino)methyl)-3-methyl-N-(3-((1s,3R)-3-methyl-1-(4-methyl-4H-1,2,4-triazol-3-yl)cyclobutyl)phenyl)imidazo[1,2-a]pyridine-8-carboxamide] | 0.5 | 1.1 |
| Cn1cnnc1[C@]1(c2cccc(NC(=O)c3cc(CNC4(C)CCC4)cn4c(F)cnc34)c2)C[C@H](CC#N)C1 [Compound A61, N-(3-((1s, 3s)-3-(cyanomethyl)-1-(4-methyl-4H-1,2,4-triazol-3-yl)cyclobutyl)phenyl)-3-fluoro-6-(((1-methylcyclobutyl)amino)methyl)imidazo[1,2-a]pyridine-8-carboxamide] | 1.2 | 11.1 |
| CC(C)CNCc1cc(C(=O)Nc2cccc([C@]3(c4nncn4C)C[C@@H](C)C3)c2)c2ncc(F)n2c1 [Compound A62, 3-fluoro-6-((isobutylamino)methyl)-N-(3-((1s, 3s)-3-methyl-1-(4-methyl-4H-1,2,4-triazol-3-yl)cyclobutyl)phenyl)imidazo[1,2-a]pyridine-8-carboxamide] | 1.1 | 7 |
| Cc1cnc2c(C(=O)Nc3cncc([C@]4(c5nncn5C)C[C@@H](C)C4)c3)cc(CN[C@@H](C)C3CCC3)cn12 [Compound A63, 6-({[(1S)-1-cyclobutylethyl]amino}methyl)-3-methyl-N-{5-[(1r, 3s)-3-methyl-1-(4-methyl-1,2,4-triazol-3-yl)cyclobutyl]pyridin-3-yl}imidazo[1,2-a]pyridine-8-carboxamide] | 1.1 | 1.8 |
| Cc1cnc2c(C(=O)Nc3cncc([C@]4(c5nncn5C)C[C@@H](C)C4)c3)cc(CN[C@@H](C)C3CC3)cn12 [Compound A64, 6-((((S)-1-cyclopropylethyl)amino)methyl)-3-methyl-N-(5-((1s,3R)-3-methyl-1-(4-methyl-4H-1,2,4-triazol-3-yl)cyclobutyl)pyridin-3-yl)imidazo[1,2-a]pyridine-8-carboxamide] | 2.2 | 26 |
